Test results: patent US11053204B2, “Pyrimidinyloxy benzene derivatives as herbicides” (FMC Corporation, priority 2015, dated 2021)

Experiments:
Assay type in all cases: in vivo
[1] = system: Italian ryegrass (Lolium multiflorum); experiment: Test A preemergence, visual injury rating; conditions: for Ryegrass, Italian plant response rating: 0 to 100 scale (0 no effect, 100 complete control)
Procedure, shortened: (§1)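 Greenhouse pot test, loam/sand soil. Formulation: non-phytotoxic solvent mix plus surfactant. Pre: directed spray onto soil after sowing. Post: plants at 1–2 leaf, 2–10 cm. Rated visually vs untreated controls at ~10 d, 0 (no effect) to 100 (complete control).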

[2] = system: barnyardgrass (Echinochloa crus-galli); experiment: Test A preemergence, visual injury rating; conditions: for Barnyardgrass plant response rating: 0 to 100 scale (0 no effect, 100 complete control)
Procedure, shortened: as §1

[3] = system: giant foxtail (Setaria faberii); experiment: Test A preemergence, visual injury rating; conditions: for Foxtail, Giant plant response rating: 0 to 100 scale (0 no effect, 100 complete control)
Procedure, shortened: as §1

[4] = system: ragweed (common ragweed, Ambrosia elatior); experiment: Test A preemergence, visual injury rating; conditions: for Ragweed plant response rating: 0 to 100 scale (0 no effect, 100 complete control)
Procedure, shortened: as §1

[5] = system: blackgrass (Alopecurus myosuroides); experiment: Test C preemergence, plant response rating; conditions: Preemergence
Procedure, shortened: (§2)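 Pre-emergence: seeds sown in loam soil–sand blend or silt loam and sprayed with test chemicals in a non-phytotoxic solvent mixture with surfactant. Post-emergence: plants 2 to 18 cm (1- to 4-leaf stage) in peat-based potting medium, same formulation. Greenhouse 13 to 15 d; visual rating 0 (no effect) to 100 (complete control) versus controls.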

[6] = system: corn (Zea mays); experiment: Test C preemergence, plant response rating; conditions: Preemergence
Procedure, shortened: as §2

[7] = system: crabgrass, large (large crabgrass, Digitaria sanguinalis); experiment: Test C preemergence, plant response rating; conditions: Preemergence
Procedure, shortened: as §2

[8] = system: foxtail, giant (giant foxtail, Setaria faberii); experiment: Test C preemergence, plant response rating; conditions: Preemergence
Procedure, shortened: as §2

[9] = system: lambsquarters (Chenopodium album); experiment: Test C preemergence, plant response rating; conditions: Preemergence
Procedure, shortened: as §2

[10] = system: morningglory (Ipomoea coccinea); experiment: Test C preemergence, plant response rating; conditions: Preemergence
Procedure, shortened: as §2

[11] = system: nutsedge, yellow (yellow nutsedge, Cyperus esculentus); experiment: Test C preemergence, plant response rating; conditions: Preemergence
Procedure, shortened: as §2

[12] = system: oilseed rape (Brassica napus); experiment: Test C preemergence, plant response rating; conditions: Preemergence
Procedure, shortened: as §2

[13] = system: ragweed (common ragweed, Ambrosia elatior); experiment: Test C preemergence, plant response rating; conditions: Preemergence
Procedure, shortened: as §2

[14] = system: ryegrass, Italian (Italian ryegrass, Lolium multiflorum); experiment: Test C preemergence, plant response rating; conditions: Preemergence
Procedure, shortened: as §2

[15] = system: soybean (Glycine max); experiment: Test C preemergence, plant response rating; conditions: Preemergence
Procedure, shortened: as §2

[16] = system: velvetleaf (Abutilon theophrasti); experiment: Test C preemergence, plant response rating; conditions: Preemergence
Procedure, shortened: as §2

[17] = system: waterhemp (common waterhemp, Amaranthus rudis); experiment: Test C preemergence, plant response rating; conditions: Preemergence
Procedure, shortened: as §2

[18] = system: wheat (winter wheat, Triticum aestivum); experiment: Test C preemergence, plant response rating; conditions: Preemergence
Procedure, shortened: as §2

[19] = 31 g ai/ha, 0 to 100 scale, 0 no effect, 100 complete control

SMILES: CCCCC(=O)c1c(Br)cccc1Oc1ncc(Cl)cn1 [Compound 79]
- Ryegrass, Italian plant response rating ([1]; 125 g ai/ha): 90
- Ryegrass, Italian plant response rating ([1]; 500 g ai/ha): 100
- Barnyardgrass plant response rating ([2]; 125 g ai/ha): 100
- Barnyardgrass plant response rating ([2]; 500 g ai/ha): 100
- Foxtail, Giant plant response rating ([3]; 125 g ai/ha): 100
- Foxtail, Giant plant response rating ([3]; 500 g ai/ha): 100
- Ragweed plant response rating ([4]; 125 g ai/ha): 30
- Ragweed plant response rating ([4]; 500 g ai/ha): 90
- Plant response rating, Blackgrass ([5]; 62 g ai/ha, scale of 0 to 100): 75
- Plant response rating, Blackgrass ([5]; 125 g ai/ha, scale of 0 to 100): 90
- Plant response rating, Blackgrass ([5]; 16 g ai/ha, scale 0 to 100): 5
- Plant response rating, Blackgrass ([5]; 31 g ai/ha, scale 0 to 100): 10
- Plant response rating, Corn ([6]; 62 g ai/ha, scale of 0 to 100): 5
- Plant response rating, Corn ([6]; 125 g ai/ha, scale of 0 to 100): 30
- Plant response rating, Corn ([6]; 16 g ai/ha, scale 0 to 100): 0
- Plant response rating, Corn ([6]; 31 g ai/ha, scale 0 to 100): 0
- Plant response rating, Crabgrass, Large ([7]; 62 g ai/ha, scale of 0 to 100): 100
- Plant response rating, Crabgrass, Large ([7]; 125 g ai/ha, scale of 0 to 100): 98
- Plant response rating, Crabgrass, Large ([7]; 16 g ai/ha, scale 0 to 100): 65
- Plant response rating, Crabgrass, Large ([7]; 31 g ai/ha, scale 0 to 100): 98
- Plant response rating, Foxtail, Giant ([8]; 62 g ai/ha, scale of 0 to 100): 80
- Plant response rating, Foxtail, Giant ([8]; 125 g ai/ha, scale of 0 to 100): 98
- Plant response rating, Foxtail, Giant ([8]; 16 g ai/ha, scale 0 to 100): 40
- Plant response rating, Foxtail, Giant ([8]; 31 g ai/ha, scale 0 to 100): 70
- Plant response rating, Lambsquarters ([9]; 125 g ai/ha, scale of 0 to 100): 85
- Plant response rating, Lambsquarters ([9]; 16 g ai/ha, scale 0 to 100): 0
- Plant response rating, Lambsquarters ([9]; 31 g ai/ha, scale 0 to 100): 10
- Plant response rating, Lambsquarters ([9]; 62 g ai/ha, scale 0 to 100): 70
- Plant response rating, Morningglory ([10]; 125 g ai/ha, scale of 0 to 100): 60
- Plant response rating, Morningglory ([10]; 16 g ai/ha, scale 0 to 100): 20
- Plant response rating, Morningglory ([10]; 31 g ai/ha, scale 0 to 100): 10
- Plant response rating, Morningglory ([10]; 62 g ai/ha, scale 0 to 100): 10
- Plant response rating, Nutsedge, Yellow ([11]; 125 g ai/ha, scale of 0 to 100): 0
- Plant response rating, Nutsedge, Yellow ([11]; 16 g ai/ha, scale 0 to 100): 0
- Plant response rating, Nutsedge, Yellow ([11]; 31 g ai/ha, scale 0 to 100): 0
- Plant response rating, Nutsedge, Yellow ([11]; 62 g ai/ha, scale 0 to 100): 0
- Plant response rating, Oilseed Rape ([12]; 125 g ai/ha, scale of 0 to 100): 95
- Plant response rating, Oilseed Rape ([12]; 16 g ai/ha, scale 0 to 100): 0
- Plant response rating, Oilseed Rape ([12]; 31 g ai/ha, scale 0 to 100): 0
- Plant response rating, Oilseed Rape ([12]; 62 g ai/ha, scale 0 to 100): 70
- Plant response rating, Ragweed ([13]; 125 g ai/ha, scale of 0 to 100): 30
- Plant response rating, Ragweed ([13]; 16 g ai/ha, scale 0 to 100): 0
- Plant response rating, Ragweed ([13]; 31 g ai/ha, scale 0 to 100): 0
- Plant response rating, Ragweed ([13]; 62 g ai/ha, scale 0 to 100): 20
- Plant response rating, Ryegrass, Italian ([14]; 125 g ai/ha, scale of 0 to 100): 35
- Plant response rating, Ryegrass, Italian ([14]; 16 g ai/ha, scale 0 to 100): 0
- Plant response rating, Ryegrass, Italian ([14]; 31 g ai/ha, scale 0 to 100): 10
- Plant response rating, Ryegrass, Italian ([14]; 62 g ai/ha, scale 0 to 100): 30
- Plant response rating, Soybean ([15]; 125 g ai/ha, scale of 0 to 100): 5
- Plant response rating, Soybean ([15]; 16 g ai/ha, scale 0 to 100): 0
- Plant response rating, Soybean ([15]; 31 g ai/ha, scale 0 to 100): 0
- Plant response rating, Soybean ([15]; 62 g ai/ha, scale 0 to 100): 5
- Plant response rating, Velvetleaf ([16]; 125 g ai/ha, scale of 0 to 100): 75
- Plant response rating, Velvetleaf ([16]; 16 g ai/ha, scale 0 to 100): 10
- Plant response rating, Velvetleaf ([16]; 31 g ai/ha, scale 0 to 100): 5
- Plant response rating, Velvetleaf ([16]; 62 g ai/ha, scale 0 to 100): 20
- Plant response rating, Waterhemp ([17]; 125 g ai/ha, scale of 0 to 100): 100
- Plant response rating, Waterhemp ([17]; 16 g ai/ha, scale 0 to 100): 100
- Plant response rating, Waterhemp ([17]; 31 g ai/ha, scale 0 to 100): 98
- Plant response rating, Waterhemp ([17]; 62 g ai/ha, scale 0 to 100): 95
- Plant response rating, Wheat ([18]; 125 g ai/ha, scale of 0 to 100): 15
- Plant response rating, Wheat ([18]; 16 g ai/ha, scale 0 to 100): 0
- Plant response rating, Wheat ([18]; 31 g ai/ha, scale 0 to 100): 5
- Plant response rating, Wheat ([18]; 62 g ai/ha, scale 0 to 100): 5

SMILES: N#Cc1cccc(Oc2ncc(Cl)cn2)c1COCCC(F)(F)F [Compound 80]
- Plant response rating, Ryegrass, Italian [1, 19]: 0
- Ryegrass, Italian plant response rating ([1]; 125 g ai/ha): 50
- Plant response rating, Barnyardgrass [2, 19]: 60
- Barnyardgrass plant response rating ([2]; 125 g ai/ha): 100
- Plant response rating, Foxtail, Giant [3, 19]: 90
- Foxtail, Giant plant response rating ([3]; 125 g ai/ha): 100
- Plant response rating, Ragweed [4, 19]: 0
- Ragweed plant response rating ([4]; 125 g ai/ha): 20
- Plant response rating, Blackgrass ([5]; 62 g ai/ha, scale of 0 to 100): 70
- Plant response rating, Blackgrass ([5]; 125 g ai/ha, scale of 0 to 100): 90
- Plant response rating, Blackgrass ([5]; 16 g ai/ha, scale 0 to 100): 5
- Plant response rating, Blackgrass ([5]; 31 g ai/ha, scale 0 to 100): 10
- Plant response rating, Corn ([6]; 62 g ai/ha, scale of 0 to 100): 5
- Plant response rating, Corn ([6]; 125 g ai/ha, scale of 0 to 100): 20
- Plant response rating, Corn ([6]; 16 g ai/ha, scale 0 to 100): 0
- Plant response rating, Corn ([6]; 31 g ai/ha, scale 0 to 100): 5
- Plant response rating, Crabgrass, Large ([7]; 62 g ai/ha, scale of 0 to 100): 100
- Plant response rating, Crabgrass, Large ([7]; 125 g ai/ha, scale of 0 to 100): 98
- Plant response rating, Crabgrass, Large ([7]; 16 g ai/ha, scale 0 to 100): 55
- Plant response rating, Crabgrass, Large ([7]; 31 g ai/ha, scale 0 to 100): 80
- Plant response rating, Foxtail, Giant ([8]; 62 g ai/ha, scale of 0 to 100): 85
- Plant response rating, Foxtail, Giant ([8]; 125 g ai/ha, scale of 0 to 100): 100
- Plant response rating, Foxtail, Giant ([8]; 31 g ai/ha, scale 0 to 100): 40
- Plant response rating, Lambsquarters ([9]; 125 g ai/ha, scale of 0 to 100): 98
- Plant response rating, Lambsquarters ([9]; 31 g ai/ha, scale 0 to 100): 70
- Plant response rating, Lambsquarters ([9]; 62 g ai/ha, scale 0 to 100): 95
- Plant response rating, Morningglory ([10]; 125 g ai/ha, scale of 0 to 100): 75
- Plant response rating, Morningglory ([10]; 31 g ai/ha, scale 0 to 100): 20
- Plant response rating, Morningglory ([10]; 62 g ai/ha, scale 0 to 100): 40
- Plant response rating, Nutsedge, Yellow ([11]; 125 g ai/ha, scale of 0 to 100): 35
- Plant response rating, Nutsedge, Yellow ([11]; 31 g ai/ha, scale 0 to 100): 0
- Plant response rating, Nutsedge, Yellow ([11]; 62 g ai/ha, scale 0 to 100): 0
- Plant response rating, Oilseed Rape ([12]; 125 g ai/ha, scale of 0 to 100): 100
- Plant response rating, Oilseed Rape ([12]; 31 g ai/ha, scale 0 to 100): 80
- Plant response rating, Oilseed Rape ([12]; 62 g ai/ha, scale 0 to 100): 70
- Plant response rating, Ragweed ([13]; 125 g ai/ha, scale of 0 to 100): 20
- Plant response rating, Ragweed ([13]; 31 g ai/ha, scale 0 to 100): 0
- Plant response rating, Ragweed ([13]; 62 g ai/ha, scale 0 to 100): 5
- Plant response rating, Ryegrass, Italian ([14]; 125 g ai/ha, scale of 0 to 100): 25
- Plant response rating, Ryegrass, Italian ([14]; 31 g ai/ha, scale 0 to 100): 0
- Plant response rating, Ryegrass, Italian ([14]; 62 g ai/ha, scale 0 to 100): 5
- Plant response rating, Soybean ([15]; 125 g ai/ha, scale of 0 to 100): 85
- Plant response rating, Soybean ([15]; 31 g ai/ha, scale 0 to 100): 20
- Plant response rating, Soybean ([15]; 62 g ai/ha, scale 0 to 100): 40
- Plant response rating, Velvetleaf ([16]; 125 g ai/ha, scale of 0 to 100): 100
- Plant response rating, Velvetleaf ([16]; 31 g ai/ha, scale 0 to 100): 55
- Plant response rating, Velvetleaf ([16]; 62 g ai/ha, scale 0 to 100): 70
- Plant response rating, Waterhemp ([17]; 125 g ai/ha, scale of 0 to 100): 100
- Plant response rating, Waterhemp ([17]; 31 g ai/ha, scale 0 to 100): 100
- Plant response rating, Waterhemp ([17]; 62 g ai/ha, scale 0 to 100): 100
- Plant response rating, Wheat ([18]; 125 g ai/ha, scale of 0 to 100): 15
- Plant response rating, Wheat ([18]; 31 g ai/ha, scale 0 to 100): 0
- Plant response rating, Wheat ([18]; 62 g ai/ha, scale 0 to 100): 0
